One compound from US4863969A, “Treatment of premalignant lesions and certain malignant tumors” (priority 1985, dated 1989) can be followed below.

Data set [1] concerns squamous metaplasia of the vaginal epithelium. In words: Antimetaplastic activity in ovarectomized rats (hormone-induced squamous metaplasia, vaginal smear). It counts as in vivo, female Holtzmann rats. As to the method: (C) The antimetaplastic activity of compound Ia was determined in rats according to the following method. Female Holtzmann rats weighing approximately 100 g were ovarectomized under Thiogenal narcosis after an adaptation period of 8 days and were used in the experiment after a further 14 days. In each case two animals were placed in a cage and had free access to feed which contained approximately 2000 IU of analytically determined vitamin A. Prior to the oral administration of the test compound the animals were treated subcutaneously each day for 6 successive days with the hormone mixture of 1 μg of estradiol benzoate and 250 μg of testosterone propionate dissolved in 0.1 ml of sesame oil. The parenteral hormone administration led to the formation of a clear granular stage in the vaginal smear, i.e. a squamous metaplasia. 2 days after the oral administration of the test substance the result of the reaction was again read off on the vaginal epithelium. The area method according to Behrens and Karber was employed to calculate the average effective dosages.

The nature of data set [2]: Triglyceride / lipid value in blood plasma of rats. The class given is in vivo, albino rats. On the procedure: In order to detect this activity a dosage of compound Ia was administered five times per dosage to 5 male and 5 female albino rats weighing approximately 150 g by means of a probang within 2 days in intervals of in each case 18 and 6 hours. 18 hours after the last application 1-1,2 ml of blood plasma were removed retroorbitally from the experimental animals. The triglyceride value was determined by enzymatic cleavage of the triglyceride with subsequent determination of the resulting glycerine (colour reaction) by means of Periodchrom triglyceride GPO-PAP.

Molecules are shown by their SMILES.

For `C/C(=C\c1ccccc1)c1ccc2c(c1)C(C)(C)CCC2(C)C` [Compound Ia, 1,2,3,4-tetrahydro-1,1,4,4-tetramethyl-6-[(E)-alpha-methylstyryl]naphthalene], the “Relative activity (antimetaplastic)” value in data set [1] (all-trans vitamin A acid = 100%) is reported as 66.6%. Moreover, the “Epithelium protection effect (=anti-metaplastic effect) reduced by the factor” value in data set [1] (compared with all-trans vitamin A acid) is given as 0.67. In addition, the “Antimetaplastic effect (average effective / protective dosage)” value in data set [1] (oral, read 2 days after administration, area method of Behrens and Karber) amounted to 53.6 µg. For the same compound, in data set [2] (as a sole therapeutically active retinoid), the “Effect on the lipid value in blood plasma” value was “no increase in the lipid value in blood plasma”. Besides, the Lipid-lowering activity result in data set [2] (blood plasma) is reported as “possesses a lipid-lowering activity”. The “Triglyceride value in blood plasma” value in data set [2] (female rats, 10 mg/kg by probang, five times within 2 days (control 69 ± 28)) stood at 56 ± 25 mg/100 ml; in data set [2] (female rats, 100 mg/kg by probang, five times within 2 days (control 69 ± 28)), 72 ± 18 mg/100 ml; in data set [2] (female rats, 1000 mg/kg by probang, five times within 2 days (control 69 ± 28)) it was 30 ± 8 mg/100 ml; in data set [2] (male rats, 10 mg/kg by probang, five times within 2 days (control 201 ± 39)) it was 158 ± 56 mg/100 ml; in data set [2] (male rats, 100 mg/kg by probang, five times within 2 days (control 201 ± 39)), 173 ± 18 mg/100 ml; in data set [2] (male rats, 1000 mg/kg by probang, five times within 2 days (control 201 ± 39)) it was 41 ± 19 mg/100 ml.
